The structures appear in SMILES notation. Some results are limits rather than exact numbers.

The target of this assay is T1, human ADRA2B receptor (Homo sapiens, UniProt P18089).
T1 construct: expressed in transfected cells
T1 sequence (P18089 1-450): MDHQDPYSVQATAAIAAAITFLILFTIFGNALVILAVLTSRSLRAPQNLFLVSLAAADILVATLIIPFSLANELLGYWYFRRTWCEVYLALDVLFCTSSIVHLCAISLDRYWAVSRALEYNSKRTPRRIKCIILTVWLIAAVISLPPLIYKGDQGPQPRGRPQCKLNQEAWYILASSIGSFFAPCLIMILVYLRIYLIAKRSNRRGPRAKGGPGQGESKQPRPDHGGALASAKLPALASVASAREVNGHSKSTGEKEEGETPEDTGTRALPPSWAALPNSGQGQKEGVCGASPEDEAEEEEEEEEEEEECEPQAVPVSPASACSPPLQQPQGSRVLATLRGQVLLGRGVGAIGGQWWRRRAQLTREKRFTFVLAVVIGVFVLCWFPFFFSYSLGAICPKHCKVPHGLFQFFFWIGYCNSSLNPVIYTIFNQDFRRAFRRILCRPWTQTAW
The assay is described as follows: ADRA2B arrestin agonist assay. The format is cell-based. The settings on record: CHO-K1 cells stably expressing human ADRA2B; read-out: Beta-Arrestin - Human Alpha2B EC50. Here is the method: ADRA2A and ADRA2B Arrestin Agonist Assay Method
The arrestin assay uses frozen CHO-K1 cell lines stably expressing human ADRA2A and ADRA2B receptors. Cells are frozen following normal cell freezing protocols. Briefly, cells are washed with PBS and then dissociated with 0.25% trypsin. Dissociated cells are quenched in full media and then collected by centrifugation at 290×g for 5 minutes. […] Cells are stored at −80° C. (or in liquid N2 if stored >6 months) until the day of the assay.
On the day before the assay, frozen cells are thawed in a 37° C. water bath, brought up in 20 mL of full media, and collected via centrifugation at 290×g for 5 minutes. […] Cells are incubated overnight in a 37° C., 5% CO2 cell incubator.
On the day of the assay, agonists are diluted in Opti-MEM to 3.5x of the final assay concentration. 4 μL of agonists are added to the cells and incubated for 2 hours at 37° C. in a 5% CO2 cell incubator. 6 μL of arrestin detection reagents are dispensed onto the cells and the plates are incubated for 2 hours at room temperature. […] Plates are read on an Envision luminescence plate reader.
A word on the EC50: it is the concentration giving half of the maximal effect. Regarding `Cn1nccc1CC(c1c[nH]cn1)c1cccc2ccn(C)c12` (stereo not drawn) [Compound 267, 5-[2-(4-imidazolyl)-2-(1-methyl-7-indolyl)ethyl]-1-methylpyrazole], the EC50 lay in the range of 0.05 to 0.5 µM.
Take `Cc1cccc(C(Cc2ccnc(C3CCO3)n2)c2c[nH]cn2)c1C` (stereo not drawn) [Compound 405, 4-[2-(2,3-dimethylphenyl)-2-(1H-imidazol-4-yl)ethyl]-2-(oxetan-2-yl)pyrimidine]: the concentration for a half-maximal effect (EC50) was below 0.01 µM.
The figure for `Cc1nsc(CC(c2c[nH]cn2)c2cccc(C)c2C)n1` (stereo not drawn) [Compound 264, 5-[2-(4-imidazolyl)-2-(2,3-xylyl)ethyl]-3-methyl-1,2,4-thiadiazole] is 0.05 to 0.5 µM.
The figure for `Cc1cccc([C@@H](Cc2cn(C)nn2)c2c[nH]cn2)c1C` [Compound 239, 4-[(R)-2-(4-imidazolyl)-2-(2,3-xylyl)ethyl]-1-methyl-1H-1,2,3-triazole] is above 0.5 µM; for `CC(C)n1cc(C[C@H](c2c[nH]cn2)c2cccc3c2OCC3)cn1` [Compound 298, 4-[(S)-2-(2,3-dihydro-1-benzofuran-7-yl)-2-(4-imidazolyl)ethyl]-1-isopropylpyrazole] it is below 0.01 µM.
Under `Cc1cccc([C@@H](Cc2ccnc(C(C)(C)O)n2)c2c[nH]cn2)c1C` [Compound 212, 2-{4-[(R)-2-(4-imidazolyl)-2-(2,3-xylyl)ethyl]-2-pyrimidinyl}-2-propanol] stands below 0.01 µM; under `Cn1ccc2cccc(C(Cc3cc[nH]n3)c3c[nH]cn3)c21` (stereo not drawn) [Compound 253, 3-[2-(4-imidazolyl)-2-(1-methyl-7-indolyl)ethyl]pyrazole], above 0.5 µM; under `Cc1cccc(C(Cc2ccnc(C3COC3)n2)c2c[nH]cn2)c1C` (stereo not drawn) [Compound 210, 4-[2-(4-imidazolyl)-2-(2,3-xylyl)ethyl]-2-(3-oxetanyl)pyrimidine], below 0.01 µM.
On to `Cc1cccc([C@@H](Cc2cn[nH]c2)c2c[nH]cn2)c1C` [Compound 232, 4-[(R)-2-(4-imidazolyl)-2-(2,3-xylyl)ethyl]pyrazole], for which the EC50 is above 0.5 µM.
Under `COc1nccc(CC(c2c[nH]cn2)c2cccc3cnn(C)c23)n1` (stereo not drawn) [Compound 350, 7-[1-(4-imidazolyl)-2-(2-methoxy-4-pyrimidinyl)ethyl]-1-methyl-1H-indazole] stands 0.05 to 0.5 µM.
On to `c1ccc(C[C@@H](c2c[nH]cn2)c2cccc3c2OCC3)nc1` [Compound 252, 4-[(R)-1-(2,3-dihydro-1-benzofuran-7-yl)-2-(2-pyridyl)ethyl]imida-], for which the EC50 is 0.01 to 0.05 µM.
Under `Cc1cccc([C@H](Cc2ccnn2CF)c2c[nH]cn2)c1C` [Compound 262, 5-[(S)-2-(4-imidazolyl)-2-(2,3-xylyl)ethyl]-1-(fluoromethyl)pyra-zole] stands 0.01 to 0.05 µM; under `Cc1nccc(CC(c2c[nH]cn2)c2cccc3c2cnn3C)n1` (stereo not drawn) [Compound 167, 4-[1-(4-imidazolyl)-2-(2-methyl-4-pyrimidinyl)ethyl]-1-methyl-1H-indazole], below 0.01 µM; under `Cc1cccc(C(Cc2cnsc2)c2c[nH]cn2)c1C` (stereo not drawn) [Compound 391, 4-[2-(4-imidazolyl)-2-(2,3-xylyl)ethyl]isothiazole], below 0.01 µM.
The figure for `Cc1cccc(C(Cc2ccnc(CO)n2)c2c[nH]cn2)c1F` (stereo not drawn) [Compound 156, {4-[2-(2-fluoro-3-tolyl)-2-(4-imidazolyl)ethyl]-2-pyrimidinyl}methanol] is below 0.01 µM; for `c1cc2c(c([C@@H](Cc3cc[nH]n3)c3c[nH]cn3)c1)OCC2` [Compound 237, 3-[(R)-2-(2,3-dihydro-1-benzofuran-7-yl)-2-(4-imidazolyl)ethyl]pyrazole] it is above 0.5 µM.
Under `Cc1cccc(C(Cc2ccncc2F)c2c[nH]cn2)c1C` (stereo not drawn) [Compound 394, 4-[2-(3-fluoro-4-pyridyl)-1-(2,3-xylyl)ethyl]imidazole] stands below 0.01 µM; under `Fc1c(Cl)cccc1C(Cc1cc[nH]n1)c1c[nH]cn1` (stereo not drawn) [Compound 251, 3-[2-(3-chloro-2-fluorophenyl)-2-(4-imidazolyl)ethyl]py-razole], 0.05 to 0.5 µM; under `Cc1cccc(C(Cc2ccncc2Cl)c2c[nH]cn2)c1C` (stereo not drawn) [Compound 396, 4-[2-(3-chloro-4-pyridyl)-1-(2,3-xylyl)ethyl]imidazole], below 0.01 µM.
In the case of `COc1nccc(CC(c2c[nH]cn2)c2ccccc2C(F)(F)F)n1` (stereo not drawn) [Compound 354, 4-{2-(4-imidazolyl)-2-[o-(trifluoromethyl)phenyl]eth-yl}-2-methoxypyrimidine], the EC50 is above 0.5 µM.
Under `COc1cc(CC(c2c[nH]cn2)c2cccc(C)c2C)nc(OC)n1` (stereo not drawn) [Compound 307, 4-[2-(4-imidazolyl)-2-(2,3-xylyl)ethyl]-2,6-dimethoxypyrimidine] stands below 0.01 µM; under `COc1nccc(C[C@H](c2c[nH]cn2)c2cccc(C)c2OC)n1` [Compound 180, 4-[(S)-2-(4-imidazolyl)-2-(2-methoxy-3-tolyl)ethyl]-2-methoxypyrimidine], above 0.5 µM.
Under `Cc1nc(C[C@@H](c2c[nH]cn2)c2cccc(C)c2C)co1` [Compound 373, 4-[(R)-2-(4-imidazolyl)-2-(2,3-xylyl)ethyl]-2-methyl-1,3-oxazole] stands 0.01 to 0.05 µM; under `COc1nccc(C[C@@H](c2c[nH]cn2)c2cccc(C)c2OC)n1` [Compound 179, 4-[(R)-2-(4-imidazolyl)-2-(2-methoxy-3-tolyl)ethyl]-2-methoxypyrimidine], below 0.01 µM.
Regarding `COc1c(C)cccc1C(Cc1ccnc(CO)n1)c1c[nH]cn1` (stereo not drawn) [Compound 347, {4-[2-(4-imidazolyl)-2-(2-methoxy-3-tolyl)ethyl]-2-pyrimidinyl}methanol], the EC50 fell in the range of 0.05 to 0.5 µM.
The figure for `COc1nccc(CC(c2c[nH]cn2)c2cccc3c(C4CC4)noc23)n1` (stereo not drawn) [Compound 357, 3-cyclopropyl-7-[1-(4-imidazolyl)-2-(2-methoxy-4-pyrimidinyl)ethyl]-1,2-benzisoxazole] is above 0.5 µM; for `Cc1cccc(C(Cc2ccc(C(N)=O)nc2)c2c[nH]cn2)c1C` (stereo not drawn) [Compound 288, 5-[2-(4-imidazolyl)-2-(2,3-xylyl)ethyl]-2-pyridinecarboxamide] it is below 0.01 µM; for `CNC(=O)c1ccc(CC(c2c[nH]cn2)c2cccc(C)c2C)cn1` (stereo not drawn) [Compound 302, N-methyl-5-[2-(4-imidazolyl)-2-(2,3-xylyl)ethyl]-2-pyridinecarboxamide] it is below 0.01 µM.
Consider `Cc1cccc(C(Cc2ccnc(C(C)C)n2)c2c[nH]cn2)c1C` (stereo not drawn) [Compound 291, 4-[2-(4-imidazolyl)-2-(2,3-xylyl)ethyl]-2-isopropylpyrimidine], for which the EC50 is below 0.01 µM.
Under `COc1nccc(CC(c2c[nH]cn2)c2ccc(C)c(F)c2F)n1` (stereo not drawn) [Compound 189, 4-[2-(2,3-difluoro-4-tolyl)-2-(4-imidazolyl)ethyl]-2-methoxypyrimidine] stands above 0.5 µM.
Under `COc1cc(CC(c2c[nH]cn2)c2cccc(C)c2C)ccn1` (stereo not drawn) [Compound 274, 4-[2-(2-methoxy-4-pyridyl)-1-(2,3-xylyl)ethyl]imidazole] stands below 0.01 µM; under `Cc1cccc([C@H](Cc2cccc(CO)n2)c2c[nH]cn2)c1C` [Compound 147, {6-[(S)-2-(4-imidazolyl)-2-(2,3-xylyl)ethyl]-2-pyridyl}methanol], above 0.5 µM; under `COCn1ccc(C[C@H](c2c[nH]cn2)c2cccc(C)c2C)n1` [Compound 278, 3-[(S)-2-(4-imidazolyl)-2-(2,3-xylyl)ethyl]-1-(methoxymethyl)pyrazole], below 0.01 µM.
As to `Cc1cccc(C(Cc2cocn2)c2c[nH]cn2)c1Cl` (stereo not drawn) [Compound 376, 4-[2-(2-chloro-3-tolyl)-2-(4-imidazolyl)ethyl]-1,3-oxazole], the concentration giving a half-maximal response (EC50) lay within 0.01 to 0.05 µM.
Under `Cc1cc(CC(c2c[nH]cn2)c2cccc3ccn(C)c23)ncn1` (stereo not drawn) [Compound 165, 4-[2-(4-imidazolyl)-2-(1-methyl-7-indolyl)ethyl]-6-methylpyrimidine] stands 0.05 to 0.5 µM.
As for `Cc1nnc(CC(c2c[nH]cn2)c2cccc(C)c2C)s1` (stereo not drawn) [Compound 263, 2-[2-(4-imidazolyl)-2-(2,3-xylyl)ethyl]-5-methyl-1,3,4-thiadiazole], the EC50 was 0.05 to 0.5 µM.
Take `Cc1cccc(C(Cc2ncns2)c2c[nH]cn2)c1C` (stereo not drawn) [Compound 248, 5-[2-(4-imidazolyl)-2-(2,3-xylyl)ethyl]-1,2,4-thiadiazole]: the EC50 was below 0.01 µM.
For `Cc1cccc(C(Cc2c(C)ccnc2C)c2c[nH]cn2)c1C` (stereo not drawn) [Compound 386, 4-[2-(2,4-dimethyl-3-pyridyl)-1-(2,3-xylyl)ethyl]imidazole], the concentration for a half-maximal effect (EC50) is above 0.5 µM.
For `Cc1cccc([C@@H](Cc2cccc(C(C)(C)O)n2)c2c[nH]cn2)c1C` [Compound 304, 2-{6-[(R)-2-(4-imidazolyl) 2-(2,3-xylyl)ethyl]-2-pyridyl}-2-propanol], the 50% effective concentration (EC50) is below 0.01 µM.

The values are drawn from patent US20260042769A1, “TRIARYL AGONISTS OF ALPHA-2 ADRENERGIC RECEPTORS” (ALCEPTOR THERAPEUTICS, INC., priority 2023, published 2026).
